# Results: US20230357320A1, “HELICAL STAPLED PEPTIDES AND USES THEREOF” (FOG PHARMACEUTICALS, INC., priority 2020, published 2023)
# Where two headings read alike, the source gives them in different places. Starred links: 1 amine or outer side, 2 acyl side, 3 side chain; linkers in the order of their positions; H or OH if unused. Positions of bridges follow the written chain, without caps; N, C: chain ends. Non-standard residues stand in square brackets, D forms with d. Residues, ends and D or L forms follow the SMILES beside them. Primed or numbered codes have the meaning given here. *: point of attachment. PL3 = (R)-N-acetyl-2-(2'-propenyl)proline (alpha-allyl proline), stapling residue, C=CC[C@@]1(C(=O)*)CCCN1C(C)=O; PL3″ = (R)-2-(2'-propenyl)proline (alpha-allyl proline), N-acetylated, C=CC[C@@]1(C(=O)*)CCCN1C(C)=O; FITC = O=C1OC2(c3ccc(O)cc3Oc3cc(O)ccc32)c2ccc(NC(=S)*)cc21; X1 = O=C([C@]1(CC=[*:3])CCCN1[*:1])[*:2]; S5 = C=CCCC[C@](C)(N)C(=O)O; Nle = CCCC[C@H](N)C(=O)O; βAla = NCCC(=O)O
# B1: FITC labeled ERL4 peptide (FITC-βAla-His-Pro-Leu-Leu-Nle-Arg-Leu-Leu-Leu-Ser-Pro-CONH2) (peptide)
# peptide: {FITC}-[βAla]HPLL[Nle]RLLLSP-NH2
# notes: Fluorescent probe of the FP assays; also called FITC-ERL4; FITC-ERL4 probe
# B2: PLL5-1 (Ac-PL3-Leu-Leu-S5-Tyr-Leu-Leu-Asp-Tyr-NHMe) (peptide)
# peptide: Ac-[PL3″]LL[S5]YLLDY-NHMe
# modifications: staple 1-4; also: staple isomer 2, cis olefin
# notes: Second-generation ProLock stapled peptide; X marks non-standard residues
# B3: PLL5-2 (Ac-PL3-Leu-Leu-S5-Tyr-Leu-Leu-Asp-Asp-NHMe) (peptide)
# peptide: Ac-[PL3]LL[S5]YLLDD-NHMe
# modifications: staple 1-4; also: staple isomer 2, cis olefin
# notes: as for B2
# B4: PLL5-3 (Ac-PL3-Leu-Leu-S5-Tyr-Leu-Leu-Gln-Tyr-NHMe) (peptide)
# peptide: Ac-[PL3]LL[S5]YLLQY-NHMe
# modifications: staple 1-4; also: staple isomer 2, cis olefin
# notes: as for B2
# B5: PLL7-1 (Ac-PL3-Thr-Leu-S5-Tyr-Leu-Leu-Asp-Asp-NHMe) (peptide)
# peptide: Ac-[PL3]TL[S5]YLLDD-NHMe
# modifications: staple 1-4; also: staple isomer 2, cis olefin
# notes: as for B2
# B6: PLL5-11 (Ac-PL3-Leu-Leu-S5-Tyr-Leu-Leu-His-NHMe) (peptide)
# peptide: Ac-[PL3]LL[S5]YLLH-NHMe
# modifications: staple 1-4; also: staple isomer 2, cis olefin
# notes: as for B2
# B7: PLL5-12 (Ac-PL3-Leu-Leu-S5-Tyr-Leu-Leu-Gln-NHMe) (peptide)
# peptide: Ac-[PL3]LL[S5]YLLQ-NHMe
# modifications: staple 1-4; also: staple isomer 2, cis olefin
# notes: as for B2
# B8: PLL7-20 (Ac-PL3-Ala-Leu-S5-His-Leu-Leu-Asn-NHMe) (peptide)
# peptide: Ac-[PL3]AL[S5]HLLN-NHMe
# modifications: staple 1-4; also: staple isomer 2, cis olefin
# notes: as for B2
# B9: PLL7-8 (Ac-PL3-Ala-Leu-S5-Tyr-Leu-Leu-Gln-Asp-NHMe) (peptide)
# peptide: Ac-[PL3]AL[S5]YLLQD-NHMe
# modifications: staple 1-4; also: staple isomer 2, cis olefin
# notes: as for B2
# B10: PLL5-5 (Ac-PL3-Thr-Leu-S5-Tyr-Leu-Leu-Asp-NHMe) (peptide)
# peptide: Ac-[PL3]TL[S5]YLLD-NHMe
# modifications: staple 1-4; also: staple isomer 2, cis olefin
# notes: as for B2
# B11: PLL5-6 (Ac-PL3-Lys-Leu-S5-Tyr-Leu-Leu-Asp-NHMe) (peptide)
# peptide: Ac-[PL3]KL[S5]YLLD-NHMe
# modifications: staple 1-4; also: staple isomer 2, cis olefin
# notes: as for B2
# Experiments:
# [1] = PAMPA (Parallel Artificial Membrane Permeability Assay); parameters: Papp at 5 h: dose or concentration left out as unconfirmed;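 also: Phospholipid-membrane PAMPA, donor and acceptor in DPBS pH 7.4 with 5% DMSO, 37 °C for 5 h, compound in each well quantified by reverse-phase HPLC-MS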
# Description: (§1) The synthesized peptides were first analyzed with a PAMPA assay. […] The PAMPA plate system is composed of two compartments, donor and acceptor, which are separated by a phospholipid-infused membrane. The amount of compound transferred from the acceptor well into the donor well over a period of incubation time is used to determine the passive permeability of a compound.
# (§2) The two plates are separated by a membrane infused with phospholipids. […] The amount of compound transferred from one well to the other is usually quantified by reverse-phase HPLC-mass spectrometry.
# (§3) Briefly, all PAMPA assays were performed using the commercially available PAMPA plate system from Corning, which uses a proprietary membrane composed of structured phospholipids. […] To prevent nonspecific peptide loss to the plates, the acceptor wells of the Corning PAMPA plates were blocked overnight with 5% nonfat milk with 0.1% Triton X-100 in Dulbecco's phosphate buffer saline (DPBS) at pH=7.4, followed by extensive washing prior to assays. The donor wells and membrane itself were not exposed to the milk/Triton solution. […] The PAMPA experiments described herein were performed using plates from Corning Lot #9112010, Lot #9112011 and Lot #7317005 (Corning Inc., Corning, New York, USA).
# (§4) To set up PAMPA assays, the PAMPA plate system was equilibrated at room temperature for at least an hour before setting up the assay. The acceptor plate preincubated with milk blocking solution was washed with water, followed by DPBS buffer. 300 μL of 5% DMSO in DPBS at pH=7.4 was added to the pre-blocked acceptor plate, and 200 μL of 10M compounds made with 5% DMSO in DPBS at pH=7.4 was added to the donor plate. The donor plate with a lid was then carefully inserted into the acceptor plate with no bubbles formed at the interface of donor and acceptor plates. The PAMPA assay plate was covered with aluminum foil and placed in a 37° C. incubator for 5 hours. 10 M input solution of all compounds was diluted 20-fold to a final acetonitrile concentration of 50% before analyzing by reverse-phase HPLC and Q-Exactive plus mass spectrometer. At the end of 5 hours, PAMPA donor and acceptor plates were separated and diluted 20-fold and 2-fold respectively to a final acetonitrile concentration of 50%. The diluted solutions of PAMPA donor and acceptor plates were analyzed by reverse-phase HPLC and Q-Exactive plus mass spectrometer.
# (§5) Pe measures the passive permeability of each compound tested in the PAMPA assay, whereas % retention measures the amount of compound retained in solution at the end of the assay compared to the input sample.
# [2] = target: T1, ERβ LBD (Homo sapiens, UniProt Q92731); assay: Competition fluorescence polarization (FP) binding assay with FITC-ERL4 probe
# T1 construct: pET28a+ vector containing ERβ LBD (residues from 261 to 500) along with an N-terminal His6-yBBr-TEV tag; His6 (N); yBBr (N); TEV cleavage site (N); made in house; host or cells: E. coli BL21(DE3) pLysS
# Description: In addition to the PAMPA assay, to study the affinity of the first-generation ProLock™ stapled peptides to the Estrogen receptor p ligand-binding domain (ERβ LBD), a fluorescence polarization (FP) binding assay in competition format was used in the presence of the endogenous ERβ LBD ligand estradiol. Competition Fluorescence Polarization (FP) assay was performed on the peptides to determine their half-maximal effective concentration (EC50). To do this, FITC labeled ERL4 peptide (FITC-βAla-His-Pro-Leu-Leu-Nle-Arg-Leu-Leu-Leu-Ser-Pro-CONH2) was synthesized to be used as a fluorescence probe based on existing literature (Fuchs et al., Journal of the American Chemical Society 2013, 135 (11), 4364-4371). Direct FP was performed in black 384-well plates (Corning). The final volume of each assay well was 40 μL with constant concentration of FITC labeled ERL4 peptide (10 nM) and variable concentrations of ERβ LBD protein.
# ERβ LBD expression and purification was performed as follows. BL21(DE3) pLysS E. coli cells were transformed with a pET28a+ vector containing ERβ LBD (residues from 261 to 500) along with an N-terminal His6-yBBr-TEV tag. An overnight culture in 10 mL of TB media containing 50 μg/mL kanamycin was prepared from a single bacterial colony. The overnight culture was subsequently added to 1 liter of autoclaved TB media containing 50 μg/mL kanamycin and shaken at 37° C. until an OD of 0.6-0.8 was reached. IPTG was added to the culture and left shaking for 6 hours. Bacterial culture was pelleted and resuspended in lysis buffer. Resuspended bacterial culture was incubated at 0° C. for 10 minutes before sonication at 65% amplitude with 10-sec cycles using a Branson Sonifier. The lysate was then cleared by centrifugation at 8000×g for 20 min. […] The expected molecular weight of the ERβ LBD protein is 30.8 KDa, which molecular weight was confirmed by SDS PAGE analysis. Purified ERβ LBD was concentrated to 90 μM and was stored at −80° C. buffer.
# Competition FP assays were also employed. These were performed in black 384-well plates (Corning). The final volume of each assay well was 80 μL containing constant concentrations of estradiol (1 μM) and FITC labeled ERL4 (10 nM). The ERβ LBD concentration was held constant (200 nM) while varying the concentration of ProLock stapled peptides (3-fold dilution from 10 μM). Upon addition of samples to each well, the plate was centrifuged for 10 seconds at 3000 rpm and incubated at 4° C. for 1 hour. FP measurements were performed at room temperature with excitation and emission wavelengths at 485 and 535 nm using a Clariostar microplate reader (BMG Labtech). Each plate had high and low polarization samples, which are used to normalize the assay data. The competition FP results were analyzed by Prism 7 (GraphPad). The non-linear regression analysis of the data was used to determine the half-maximal effective concentration (EC50) of ProLock stapled peptides. […] The normalized FP values shown in FIG. 6 are mean±S.E.M of at least four independent replicates.
# [3] = CHI Log D measurement (chromatographic hydrophobicity index); conditions: pH 7.4
# Description: Finally, to measure hydrophobicity, a CHI Log D measurement assay was employed. […] The retention time measurements were performed using reverse-phase HPLC and Q-Exactive mass spectrometer with Phenomenex Gemini C-18 column (3 uM, 50×3 mm). The reverse-phase chromatography was performed using a gradient of 10 mM ammonium acetate at pH=7.4 and acetonitrile solvents. Using the identical solvent setup, gradient, and flowrate, ProLock stapled peptides were injected onto the column to determine the tR of peptides. Using the calibration curve shown in FIG. 7, tR is converted into CHI. CHI was converted into CHI Log D using the following equation.
# [4] = in vitro; parameters: dose or concentration left out as unconfirmed; conditions: PAMPA, pH 7.4, PAMPA Pe
# Description: as §1, §2, §3, §4, §5
# [5] = for % Retention: PAMPA
# Description: as §1, §2, §3, §4, §5
# [6] = physchem; conditions: pH 7.4
# [7] = target: T2, Estrogen receptor β ligand-binding domain (ERβ LBD), residues 261 to 500, with N-terminal His6-yBBr-TEV tag (UniProt Q92731 261-500); assay: direct fluorescence polarization; 10 nM probe, ERβ LBD titrated from 5 µM with estradiol; 1:1 binding model with Hill slope
# T2 construct: range 261-500; Expressed in E. coli BL21(DE3) pLysS from pET28a+, purified by Ni-NTA and SEC; Assays were run in the presence of estradiol; also called ER LBD; not shown: N-terminal His6-yBBr-TEV tag
# T2 sequence (Q92731 261-500): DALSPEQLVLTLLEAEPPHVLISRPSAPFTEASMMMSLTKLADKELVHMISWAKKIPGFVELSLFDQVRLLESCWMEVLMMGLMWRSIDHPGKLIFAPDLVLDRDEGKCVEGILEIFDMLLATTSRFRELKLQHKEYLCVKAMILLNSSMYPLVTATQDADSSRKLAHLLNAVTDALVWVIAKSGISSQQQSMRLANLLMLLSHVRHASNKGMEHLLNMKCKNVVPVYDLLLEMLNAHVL
# [8] = target: T2, Estrogen receptor β ligand-binding …; assay: competition fluorescence polarization; 200 nM ERβ LBD, 10 nM FITC-ERL4 probe, 1 µM estradiol
# Description: Competition FP assays were also employed. These were performed in black 384-well plates (Corning). The final volume of each assay well was 80 μL containing constant concentrations of estradiol (1 μM) and FITC labeled ERL4 (10 nM). […] Upon addition of samples to each well, the plate was centrifuged for 10 seconds at 3000 rpm and incubated at 4° C. for 1 hour. […] Each plate had high and low polarization samples, which are used to normalize the assay data. The competition FP results were analyzed by Prism 7 (GraphPad).
# [9] = target: T2, Estrogen receptor β ligand-binding …; assay: competition fluorescence polarization against FITC-ERL4 probe, 200 nM ERβ LBD, 1 µM estradiol
# [10] = reverse-phase HPLC, Phenomenex Gemini C-18 column
# [11] = Table 4, binding to ER LBD, estradiol 1 μM, FITC-ERL4 10 nM, ERβ LBD 200 nM, mean ± S.E.M, at least four replicates, read-out: EC50
# [12] = binding towards the ERβ LBD, read-out: EC50
molecule,measurement,setting,value
"CNC(=O)[C@H](Cc1ccc(O)cc1)NC(=O)[C@H](Cc1c[nH]cn1)NC(=O)[C@H](CC(C)C)NC(=O)[C@H](CC(C)C)NC(=O)[C@H](CCCNC(=N)N)NC(=O)[C@]1(C)CCCC=CC[C@]2(CCCN2C(C)=O)C(=O)N[C@@H](CC(C)C)C(=O)N[C@@H](CC(C)C)C(=O)N1 [PLL4-3, Ac-PL3-Leu-Leu-S5-Arg-Leu-Leu-His-Tyr-NHMe] (Ac-[X1]LL[S5]RLLHY-NHMe; staple 1-4)",Papp at 5 h,"[1]; PAMPA, pH 7.4",< 0.1 ×10⁻⁶ cm/s
same,% Retention,"[1]; Table 5, compound retained in solution at the end of the PAMPA assay compared to the input sample",73 ± 4%
same,EC50,[2],700 nM
same,chromatographic logD,[3]; [10],2.7
"CNC(=O)[C@H](CC(=O)O)NC(=O)[C@H](CCC(N)=O)NC(=O)[C@H](CC(C)C)NC(=O)[C@H](CC(C)C)NC(=O)[C@H](Cc1ccc(O)cc1)NC(=O)[C@]1(C)CCCC=CC[C@]2(CCCN2C(C)=O)C(=O)N[C@@H](C)C(=O)N[C@@H](CC(C)C)C(=O)N1 (single isomer, unassigned) [PLL7-8, Ac-PL3-Ala-Leu-S5-Tyr-Leu-Leu-Gln-Asp-NHMe]",Papp at 5 h,[4],1.4 ± 0.3 ×10⁻⁶ cm/s
same,EC50,[2]; [11],> 10000 nM
same,% Retention,[5],107 ± 3%
same,chromatographic logD,[3],1.7
"CC[C@H](C)[C@@H]1NC(=O)[C@]2(CC=CCCC[C@@](C)(C(=O)N[C@@H](CCCNC(=N)N)C(=O)N[C@@H](CC(C)C)C(=O)N[C@@H](CC(C)C)C(=O)N[C@@H](CCC(N)=O)C(=O)N[C@@H](Cc3ccc(O)cc3)C(=O)NC)NC(=O)[C@H](CC(C)C)NC1=O)CCCN2C(C)=O [PLL4-1, Ac-PL3-Ile-Leu-S5-Arg-Leu-Leu-Gln-Tyr-NHMe] (Ac-[X1]IL[S5]RLLQY-NHMe; staple 1-4)",Papp at 5 h,[4],≤ 0.1 ×10⁻⁶ cm/s
same,EC50,[2]; [12],200 nM
same,% Retention,[5],75 ± 2%
same,chromatographic logD,[3]; [10],2.9
"CNC(=O)[C@H](CC(=O)O)NC(=O)[C@H](Cc1c[nH]cn1)NC(=O)[C@H](CC(C)C)NC(=O)[C@H](CC(C)C)NC(=O)[C@H](CCCNC(=N)N)NC(=O)[C@]1(C)CCCC=CC[C@]2(CCCN2C(C)=O)C(=O)N[C@@H](CC(C)C)C(=O)N[C@@H](CC(C)C)C(=O)N1 [PLL7-9, Ac-PL3-Leu-Leu-S5-Arg-Leu-Leu-His-Asp-NHMe] (Ac-[X1]LL[S5]RLLHD-NHMe; staple 1-4)",Papp at 5 h,[4],1.1 ± 0.2 ×10⁻⁶ cm/s
same,EC50,[2]; [11],1300 ± 100 nM
same,EC50,[2]; [12],800 to 1300 nM
same,PAMPA Pe,[5],1.1 ± 0.2 (×10^−6) cm/sec
same,PAMPA Pe (text),[5],exceeding 1 ×10^−6 cm/sec
same,% Retention,[5],85 ± 4%
same,chromatographic logD,[3]; [10],2.1
"CNC(=O)[C@H](Cc1ccc(O)cc1)NC(=O)[C@@H](NC(=O)[C@H](CC(C)C)NC(=O)[C@H](CC(C)C)NC(=O)[C@H](CC(N)=O)NC(=O)[C@]1(C)CCCC=CC[C@]2(CCCN2C(C)=O)C(=O)N[C@@H](CCCCN)C(=O)N[C@@H](CC(C)C)C(=O)N1)[C@@H](C)O [PLL4-5, Ac-PL3-Lys-Leu-S5-Asn-Leu-Leu-Thr-Tyr-NHMe] (Ac-[X1]KL[S5]NLLTY-NHMe; staple 1-4)",solubility,[6],880 µM
same,Papp at 5 h,[4],0.7 ± 0.2 ×10⁻⁶ cm/s
same,EC50,[2]; [12],3000 nM
same,PAMPA Pe,[5],0.7 ± 0.2 (×10^−6) cm/sec
same,% Retention,[5],74 ± 3%
same,chromatographic logD,[3]; [10],1.8
"CNC(=O)[C@H](CC(=O)O)NC(=O)[C@H](CC(C)C)NC(=O)[C@H](CC(C)C)NC(=O)[C@H](Cc1ccc(O)cc1)NC(=O)[C@]1(C)CCCC=CC[C@]2(CCCN2C(C)=O)C(=O)N[C@@H](CC(C)C)C(=O)N[C@@H](CC(C)C)C(=O)N1 [PLL4-10, Ac-PL3-Leu-Leu-S5-Tyr-Leu-Leu-Asp-NHMe] (Ac-[X1]LL[S5]YLLD-NHMe; staple 1-4)",Papp at 5 h,[4],0.6 ± 0.1 ×10⁻⁶ cm/s
same,EC50,[2]; [12],1500 nM
same,PAMPA Pe,[5],0.6 ± 0.1 (×10^−6) cm/sec
same,PAMPA Pe (text),[5],0.3-0.7 ×10^−6 cm/sec
same,% Retention,[5],63 ± 4%
same,chromatographic logD,[3]; [10],2.4
B1,Kd,[7],160 nM
B2,EC50,[8],3900 nM
B3,EC50,[8],1200 nM
B4,EC50,[8],500 nM
B5,binding result,[9],no binding (tested: peptide titrated 3-fold from 10 µM)
B6,binding result,[9],no binding (tested: peptide titrated 3-fold from 10 µM)
B7,EC50,[8],2000 nM
B8,binding result,[9],no binding (tested: peptide titrated 3-fold from 10 µM)
B9,binding result,[9],no binding (tested: peptide titrated 3-fold from 10 µM)
B10,binding result,[9],no binding (tested: peptide titrated 3-fold from 10 µM)
B11,binding result,[9],no binding (tested: peptide titrated 3-fold from 10 µM)
